Test results: patent US12157713B2, “Conjugated oligoelectrolytes as antimicrobial agents” (Nanyang Technological University, priority 2018, dated 2024)
“And” between values parts separate entries of the source, which are not always exact repeats. Identical values can stand only once. Like-named read-outs stand apart in the source and are kept apart here.

Legend:
[1] = DSC of treated unilamellar vesicles; conditions: POPE:POPG 85:15 vesicles
Method: POPE (1-palmitoyl-2-oleoyl-phosphatidylethanolamine) and POPG (1-palmitoyl-2-oleoyl-phosphatidylglycerol) were purchased as chloroform stocks from Avanti Polar Lipids. POPE and POPG were mixed to a molar ratio of 85:15 and dried under a gentle stream of nitrogen. The lipid cake obtained was further desiccated for overnight to obtain a thin lipid film. Rehydration of the dried film was carried out by adding 25 mM Tris, 150 mM NaCl, pH 7.5, to a concentration of 4.3 mg/mL, followed by incubation at 45° C. for 2 hrs, under constant stirring using a magnetic stirrer at around 300 rpm. To prepare the unilamellar vesicles, the vesicles suspension was repeatedly extruded through a polycarbonate membrane of 100 nm pores (21 times) at 45° C. The extruded vesicle sample was kept at 4° C. till further use. The vesicle solution was diluted to 0.86 mg/mL with buffer (25 mM Tris, 150 mM NaCl, pH 7.5) or the COE solution (25 mM Tris, 150 mM NaCl, pH 7.5) before the DSC measurements.
Unilamellar vesicles composed of 1-palmitoyl-2-oleoylphosphatidylethanolamine (POPE) and 1-palmitoyl-2-oleoylphosphatidylglycero (POPG) in a molar ratio of 85:15 were prepared in accordance to the general method “Preparation of Small Unilamellar Vesicles” and were used as a generic bacterial model membrane (G. J. Gabriel, et al., Mater. Sci. Eng. R 2007, 57, 28-64).
When subjected to DSC, the main gel-to-liquid-crystal transition peaks broadened after incubation with 8 μg mL^−1 of COE-D8 (FIG. 7a). For COE-D6, a higher concentration (16 μg mL^−1) was needed to change the initial trace (FIG. 7b). […] The perturbation to the cooperative transition of the lamellar phase reflects varying degrees of membrane intercalation. This observation correlates well with solubility and the alkyl chain length (Table 1a). Due to its lower aqueous solubility, COE-D8 is likely to partition more readily into hydrophobic domains of the lipid bilayer, leading to the weakened phase transition observed in the vesicles.

E. coli K12 [2] = assay: SEM of COE-treated E. coli K12; type: cell-based, Escherichia coli; conditions: 32 μg mL^−1 COE, 2 hrs
Method: E. coli K-12 was grown, collected and washed according to the procedure described above (in the uptake measurements). COE solutions (in PBS) were added to a PBS suspension of E. coli K12 (OD600=1.0) to achieve final COE concentrations of 32 μg/mL. After incubating for 2 hrs at room temperature under shaking (200 rpm), the microbes were immediately fixed with 2.5% glutaraldehyde solution at 4° C. overnight. 10 μL of the fixed bacteria suspension was spotted onto the SEM conducting paste and left to dry in air. The bacteria samples were dehydrated with a series of increasingly concentrated ethanol solution (20%-100%). After drying overnight, the samples were coated with platinum and imaged with FESEM (JEOL JSM-6700F) to characterise the morphology of the samples.
Characterisation of treated E. coli K12 by scanning electron microscopy (SEM) COE-treated cells were characterised by SEM. E. coli K12 ([…]) were treated with 32 μg mL^−1 of each COE. […] This is consistent with the proposal that COE insertion disrupts membrane integrity and this effect is of a greater magnitude for COE-D8.

[3] = test system: Candida albicans ATCC 90028; assay: Single-dose growth inhibition, Ca; type: cell-based
Method: Growth inhibition of C. albicans was determined by measuring the absorbance at 530 nm (OD530), while the growth inhibition of C. neoformans was determined by measuring the difference in absorbance between 600 and 570 nm (OD600-570), after the addition of resazurin (0.001 wt. % final concentration) and incubation at 35° C. for additional 2 hrs. The absorbance was measured using a Biotek Synergy HTX plate reader. The relative growth inhibition was calculated for each well, relative to that determined from a negative control (media only) and positive control (bacteria without inhibitors) on the same plate as references. A single dose of 32 μg/mL of COE (final concentration) was used for each test.
Percentage growth inhibition of an individual sample was calculated based on growth in a reference well determined from negative controls (media only) and positive controls (bacterial/fungal media without inhibitors). Negative inhibition values indicate that the growth rate (or OD600) is higher compared to the reference growth (bacteria/fungi only, set to 0% inhibition). The growth rates for all bacteria and fungi may vary at −/+10%, which were within the reported normal distribution of bacterial/fungal growth. Any significant variations (or outliers/hits) were identified by the modified Z-Score, and the active compounds were selected by a combination of inhibition values and Z-Score.
A M(i) value of >|2.5| (absolute) would classify the sample as outliers or hits. Active samples were denoted as compounds with inhibition values equal to or above 80% and absolute Z-Score above |2.5| for either replicate (n=2 on different plates). Partial active samples were denoted as compounds with inhibition values from 50% to <80%, or absolute Z-Score below |2.5|.

[4] = Solubility in PBS / aqueous solubility; type: physicochemical
E. coli K12 [5] = assay: Cellular uptake by E. coli K12 (absorption spectroscopy); type: cell-based, Escherichia coli; conditions: for Uptake by E. coli K12: 10 μg/mL COE in PBS, OD=0.5, 2 hrs, room temperature; for Uptake by E. coli K12 at 4° C.: 10 μg/mL COE, 2 hrs, 4° C. (below membrane phase transition temperature)
Method: The relative membrane affinity of COE-D4, COE-D6 and COE-D8 was estimated from the quantity taken up by cells using absorption spectroscopy. After cultures of E. coli K12 were grown in MHB at 37° C., the cells were harvested by centrifugation (6000 rpm, 5 min) and washed twice with PBS solution (pH=7.2). The cells were then resuspended in PBS and with the density adjusted to OD=1.0. Thereafter, 5 mL of this cell suspension was mixed with an equal volume of 20 μg/mL of COE in PBS to achieve a final concentration of 10 μg/mL (in triplicates). After exposure to COEs for 2 hrs at room temperature and with shaking (200 rpm), the cells were removed by centrifugation and the supernatant was collected for absorbance scans to quantify the remaining COE in the supernatant. The uptake quantity was estimated by comparing the absorbance of the supernatant to the corresponding control COE solution (i.e. 10 μg/mL in PBS). The procedure for uptake measurements at the lower temperature is similar to the one described above, but with the exposure to COEs and centrifugation occurring at 4° C. instead of room temperature
The effect of molecular structures of the COEs on relative membrane affinity, estimated from the amount taken up by E. coli K12, was measured by absorption spectroscopy (FIG. 8a-c). These experiments utilised cell suspensions (OD=0.5) incubated for 2 hrs with 10 μg mL^−1 of various COE. Cells were removed by centrifugation, and the amount of uncomplexed COE was determined from the optical absorption spectra. The longest molecule, COE-D8, achieved the highest uptake in bacteria (72%). In contrast, only 3% of COE-D4 was absorbed while the uptake for COE-D6 was 16% (Table 1a).
Parallel experiments were carried out at 4° C. […] As a result of the reduced fluidity of cellular membrane at lower temperature, the uptake decreased to around 1% for COE-D4, 5% for COE-D6, and 34% for COE-D8.

[6] = ATCC90028, read-out: Growth inhibition Ca
[7] = aqueous buffer, in PBS, read-out: Solubility in PBS
[8] = PBS (aqueous solubility), read-out: aqueous solubility
[9] = ATCC90028, 32 μg/mL single dose, n=2, read-out: Growth inhibition Ca

| SMILES | Concentration needed to change the gel-to-liquid-crystal transition peak (DSC) [1] | Morphology of treated E. coli K12 by SEM (E. coli K12 [2]) | inhibition at 32 µg/mL [3, 6] | solubility [4, 7] | Uptake by E. coli K12 (E. coli K12 [5]) | Uptake by E. coli K12 at 4° C. (E. coli K12 [5]) | solubility [4, 8] | Cell affinity relative to COE-D4 (E. coli K12 [5]; E. coli K12) | inhibition at 32 µg/mL [3, 9] |
| --- | --- | --- | --- | --- | --- | --- | --- | --- | --- |
| C[N+](C)(C)CCCCOc1ccc(/C=C/c2ccc(OCCCC[N+](C)(C)C)cc2)cc1 [COE-D4] | > 32 µg/mL | rod-shaped cells with smooth outer surfaces | < 50% | 3100 µg/mL | 3% and 3 ± 2% | around 1% |  |  |  |
| C[N+](C)(C)CCCCCCOc1ccc(/C=C/c2ccc(OCCCCCC[N+](C)(C)C)cc2)cc1 [COE-D6] | 16 µg/mL | pitting and membrane rupture | > 80% | 240 µg/mL | 16% and 16 ± 3% | ~5% | 240 µg/mL |  |  |
| C[N+](C)(C)CCCCCCCCOc1ccc(/C=C/c2ccc(OCCCCCCCC[N+](C)(C)C)cc2)cc1 [COE-D8] | 8 µg/mL | pitting and membrane rupture | > 80% | 65 µg/mL | 72% and 72 ± 5% | ~34% |  | 30 times |  |
| CN(C)CC[N+](C)(C)CCCCCCOc1ccc(/C=C/c2ccc(OCCCCCC[N+](C)(C)CCN(C)C)cc2)cc1 [COE-D62N] |  |  |  |  | 11±2% |  | > 4000 µg/mL |  | > 80% |
| CN(C)CC[N+](C)(C)CCCCCCCCOc1ccc(/C=C/c2ccc(OCCCCCCCC[N+](C)(C)CCN(C)C)cc2)cc1 [COE-D82N] |  |  |  |  | 76±3% |  |  |  | > 80% |
